Reference: PubChem BioAssay AID2060611 (Molecular Pharmacology Branch, DTP, NCI, 2025)

Test system: 628569-122-R-J1-PDC complex spheroid viability
Assay: Anticancer human tumor 628569-122-R-J1-PDC patient-derived head and neck squamous carcinoma cell line growth inhibition [CLK]
Conditions: for IC50: curve of first compound; for viability, T/C: stronger effect = lower value
From the text: A high-throughput screen of multi-cell type tumor spheroids was designed to identify active combinations of […] and targeted small molecules. Complex spheroids include a stromal component modeled by human endothelial cells (HUVEC) and fibroblasts modeled by human mesenchymal stem cells (MSCs). The concentration ranges selected for each drug and investigational agent were based upon clinically achievable concentrations if the clinical Cmax of the agent was known.
Compounds. The drugs and investigational agents: cirtuvivint (SM08502; NSC835563), CC-671 (NSC850746), vemurafenib (NSC761431), tapotoclax (NSC804041), sotorasib (NSC818433), adagrasib (NSC831453), MRTX-1133 (NSC836407), BAY2416964 (NSC825713), copanlisib (NSC816437), inavolisib (NSC800729), abemaciclib (NSC768073), osimertinib (NSC779217), entinostat (NSC756642), eltanexor (KPT-8602, NSC794443), venetoclax (NSC766270), ceralasertib (NSC777638), bortezomib (NSC756655), olaparib (NSC753686), talazoparib (NSC767125), alisertib (NSC759677), peposertib (NSC802822), gemcitabine (NSC613327), 5-fluorouracil (NSC19893), SN-38 (NSC673596), oxaliplatin (NSC266046), paclitaxel (NSC125973), and doxorubicin (NSC123127), were obtained from the National Cancer Institute (NCI) Developmental Therapeutics Program Chemical Repository. The FDA-approved anticancer drug set is available from the Developmental Therapeutics Program at https://dtp.cancer.gov/organization/dscb/obtaining/available plates.htm. […] The stock solutions were prepared in dimethyl sulfoxide (DMSO, Sigma-Aldrich, St. Louis, MO, cat. D2650), except for the platinum complexes which were prepared in saline (Quality Biological, Gaithersburg, MD, cat. 114-055-101), at 800-fold the tested concentration and stored at -70 degrees C prior to their use. All drugs and investigational agents were tested over a range starting from a high concentration at or near the clinical Cmax and decreasing in half-log increments. If the clinical Cmax for an agent had not been determined, the highest concentration tested was 10 microM.
Cell Culture. All cells were maintained in an incubator at 37 degrees C and 5% CO2 with 95% humidity. The PDC lines were cultured according to standard operating procedures established by the NCI PDMR. Briefly, all PDCs were thawed and cultured in Matrigel-coated flasks prepared with a working solution of 1X Ham's F-12 nutrient mix, without supplementation (Invitrogen, Waltham, MA, cat. 11765054), 100 U/mL penicillin-streptomycin (Invitrogen, cat. 15140122), and 2.5% Matrigel (Corning Inc., Corning, NY, cat. 354248) for the first three passages. The 947758-054-R-J2-PDC line was cultured in 6B/Colon 1A media, which includes advanced DMEM/F-12 (Thermo Fisher Scientific, cat. 12634028), 10 mM HEPES (Thermo Fisher Scientific, cat. 15630080), 1X GlutaMAX supplement (Thermo Fisher Scientific, cat. 35050061), 0.1 mg/mL primocin (InvivoGen, cat. ant-pm-2), 10% defined fetal bovine serum, heat inactivated (HyClone Laboratories Inc., cat. SH30070.03HI), 1.25 mM N-Acetyl-L-cysteine (Sigma-Aldrich, cat. A9165), 10 mM nicotinamide (Sigma-Aldrich, cat. N0636), 1X B-27 supplement (Thermo Fisher Scientific, cat. 17504044), 1X N-2 supplement (Thermo Fisher Scientific, cat. 17502048), and 10 microM Y-27632 dihydrochloride (Tocris Bioscience, cat. 1254). The 876862-298-R-J1-PDC was cultured in 6E media, which includes all 6B/Colon 1A media components plus 50% L-WRN conditioned media (ATCC, cat. CRL-3276), 50 ng/mL recombinant human EGF recombinant protein (hEGF; Thermo Fisher Scientific, cat. PHG0311), 10 ng/mL recombinant human fibroblast growth factor 10 (hGFG-10; PeproTech, cat. 100-26), 1 ng/mL recombinant human fibroblast growth factor 2 (hFGF-2; PeproTech, cat. 100-18B), and 1 µM prostaglandin E2 (PGE2; Tocris, cat. 2296). The 227483-062-R1-J1-PDC line was cultured in Panc media, containing all 6E components except hFGF-2, with the addition of 500 nM SB-431542 (Selleckchem, cat. S1067) and 10 nM gastrin (Tocris, cat. 3006). […]

[1] = second compound 0.0316 µM, first compound 0.0316 µM
[2] = second compound 0.0316 µM, first compound 0.1 µM
[3] = second compound 0.0316 µM, first compound 0.316 µM
[4] = second compound 0.0316 µM, first compound 1 µM
[5] = second compound 0.0316 µM, first compound 3.16 µM
[6] = second compound 0.0316 µM, first compound 10 µM
[7] = second compound 0.1 µM, first compound 0.0316 µM
[8] = second compound 0.1 µM, first compound 0.1 µM
[9] = second compound 0.1 µM, first compound 0.316 µM
[10] = second compound 0.1 µM, first compound 1 µM
[11] = second compound 0.1 µM, first compound 3.16 µM
[12] = second compound 0.1 µM, first compound 10 µM
[13] = second compound 0.316 µM, first compound 0.0316 µM
[14] = second compound 0.316 µM, first compound 0.1 µM
[15] = second compound 0.316 µM, first compound 0.316 µM
[16] = second compound 0.316 µM, first compound 1 µM
[17] = second compound 0.316 µM, first compound 3.16 µM
[18] = second compound 0.316 µM, first compound 10 µM
[19] = second compound 1 µM, first compound 0.0316 µM
[20] = second compound 1 µM, first compound 0.1 µM
[21] = second compound 1 µM, first compound 0.316 µM
[22] = second compound 1 µM, first compound 1 µM
[23] = second compound 1 µM, first compound 3.16 µM
[24] = second compound 1 µM, first compound 10 µM
[25] = second compound 3.16 µM, first compound 0.0316 µM
[26] = second compound 3.16 µM, first compound 0.1 µM
[27] = second compound 3.16 µM, first compound 0.316 µM
[28] = second compound 3.16 µM, first compound 1 µM
[29] = second compound 3.16 µM, first compound 3.16 µM
[30] = second compound 3.16 µM, first compound 10 µM
[31] = second compound 10 µM, first compound 0.0316 µM
[32] = second compound 10 µM, first compound 0.1 µM
[33] = second compound 10 µM, first compound 0.316 µM
[34] = second compound 10 µM, first compound 1 µM
[35] = second compound 10 µM, first compound 3.16 µM
[36] = second compound 10 µM, first compound 10 µM
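Also: spheroids exposed to agents for seven days before readout.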
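For viability, T/C in this document: 100% = DMSO vehicle control viability.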

## COC1C=CCC(C)C(C)S(=O)(=O)NC(=O)c2ccc3c(c2)N(CC2CCC21)CC1(CCCc2cc(Cl)ccc21)CO3 (centres undefined) + CN1CCN(c2cc(C(=O)Nc3cc4cc(-c5cnn(C)c5)ccc4cn3)ccn2)CC1
Second compound 0.0316 µM
  IC50: 1750 nM
Second compound 0.1 µM
  IC50: 773 nM
Second compound 0.316 µM
  IC50: < 31.6 nM
Second compound 1 µM
  IC50: < 31.6 nM
Second compound 3.16 µM
  IC50: < 31.6 nM
Second compound 10 µM
  IC50: < 31.6 nM
[1]
  viability, T/C: 95.5%
[2]
  viability, T/C: 89.9%
[3]
  viability, T/C: 83.1%
[4]
  viability, T/C: 51.5%
[5]
  viability, T/C: 55%
[6]
  viability, T/C: 40.1%
[7]
  viability, T/C: 85%
[8]
  viability, T/C: 68.4%
[9]
  viability, T/C: 63.3%
[10]
  viability, T/C: 40.8%
[11]
  viability, T/C: 46.4%
[12]
  viability, T/C: 43.6%
[13]
  viability, T/C: 36.8%
[14]
  viability, T/C: 34%
[15]
  viability, T/C: 30.2%
[16]
  viability, T/C: 20.7%
[17]
  viability, T/C: 13.6%
[18]
  viability, T/C: 13.3%
[19]
  viability, T/C: 7.48%
[20]
  viability, T/C: 5.89%
[21]
  viability, T/C: 7.05%
[22]
  viability, T/C: 7.13%
[23]
  viability, T/C: 5.61%
[24]
  viability, T/C: 7.24%
[25]
  viability, T/C: 5.37%
[26]
  viability, T/C: 6.94%
[27]
  viability, T/C: 7.7%
[28]
  viability, T/C: 7.72%
[29]
  viability, T/C: 7.14%
[30]
  viability, T/C: 6.03%
[31]
  viability, T/C: 3.03%
[32]
  viability, T/C: 1.85%
[33]
  viability, T/C: 2.06%
[34]
  viability, T/C: 6.57%
[35]
  viability, T/C: 2.43%
[36]
  viability, T/C: 1.39%

## CC1COCCN1c1cc(C2(S(C)(=N)=O)CC2)nc(-c2ccnc3[nH]ccc23)n1 (centres undefined) + CNC(=O)c1ccc(Nc2nc(OC3CCCC3)c3c(-c4ccc5nc(C)oc5c4)c[nH]c3n2)c(OC)c1
Second compound 0.0316 µM
  IC50: 930 nM
Second compound 0.1 µM
  IC50: 2970 nM
Second compound 0.316 µM
  IC50: 1380 nM
Second compound 1 µM
  IC50: < 31.6 nM
Second compound 3.16 µM
  IC50: < 31.6 nM
Second compound 10 µM
  IC50: < 31.6 nM
[1]
  viability, T/C: 103%
[2]
  viability, T/C: 100%
[3]
  viability, T/C: 67.5%
[4]
  viability, T/C: 51.4%
[5]
  viability, T/C: 45%
[6]
  viability, T/C: 35.3%
[7]
  viability, T/C: 66.2%
[8]
  viability, T/C: 58.3%
[9]
  viability, T/C: 56.1%
[10]
  viability, T/C: 54.5%
[11]
  viability, T/C: 54%
[12]
  viability, T/C: 40%
[13]
  viability, T/C: 45%
[14]
  viability, T/C: 64.8%
[15]
  viability, T/C: 50.9%
[16]
  viability, T/C: 52.3%
[17]
  viability, T/C: 44.7%
[18]
  viability, T/C: 35.6%
[19]
  viability, T/C: 45.1%
[20]
  viability, T/C: 46.2%
[21]
  viability, T/C: 40.4%
[22]
  viability, T/C: 38.3%
[23]
  viability, T/C: 41.8%
[24]
  viability, T/C: 33.8%
[25]
  viability, T/C: 44.1%
[26]
  viability, T/C: 55.3%
[27]
  viability, T/C: 47.2%
[28]
  viability, T/C: 37.7%
[29]
  viability, T/C: 36.7%
[30]
  viability, T/C: 32%
[31]
  viability, T/C: 44.2%
[32]
  viability, T/C: 43.7%
[33]
  viability, T/C: 39.7%
[34]
  viability, T/C: 40.4%
[35]
  viability, T/C: 39%
[36]
  viability, T/C: 29.4%
